In patent US11045519B2, “Arginine-rich polypeptide compositions and methods of using same” (UNM Rainforest Innovations, priority 2017, dated 2021):
Where a SMILES comes first, the peptide text is derived from it. Where no end group is shown, it is not given here. The star is where a group is joined. Decanoyl = CCCCCCCCCC(=O)*; CH2Cl = ClC*

What was measured:
recombinant His-furin = target: T1, recombinant His-furin (Homo sapiens, UniProt P09958); assay: Furin cleavage of HPV16 L2 capsid protein (immunoblot); assay type: biochemical; conditions: 30 μM, 3 nM His-furin, 2 h 37° C.
T1 construct: His
Protocol: FIG. 9. PolyR inhibits HPV16 L2 protein cleavage by furin and induces accumulation of internalized virus particles in late endosomal fraction. (A) Equal amount of HPV16 diluted in 50 μl furin assay buffer (1 mM CaCl2), 100 mM HEPES, 0.5% Triton X-100, 1 mM β-mercaptoethanol) was loaded into six tubes, […], in the presence of 1.3 μM furin inhibitor1 (Merck Millipore Corp., Burlington, Mass.), or 1 μM polyR. Samples were mixed with SDS-PAGE sample buffer and boiled before fractionation on 9% gel. Proteins were transferred onto PVDF membranes and after blocking, incubated with affinity-purified rabbit anti-HPV16 polyclonal antibody. Secondary donkey anti-rabbit horseradish peroxidase-coupled antibody was used for detection of HPV16 capsid proteins. (B) HaCaT cells grown on coverslips were incubated with HPV16 PsVs for one hour at 37° C. to initiate virus binding (and partial internalization) before adding 1 μM polyR and further incubated for seven hours. […]
Cleavage of the L2 minor capsid protein by the cellular pro-protein convertase, furin, is an essential step in infectious entry of HPVs. […] After two hours of incubation, HPV16 cleavage was assessed by immunoblotting using anti-HPV 16 polyclonal antibody. […]

[1] = tested on: HPV16 pseudovirions (PsVs); assay: HPV16 PsV luciferase infectivity assay, HaCaT cells pretreated with peptide; assay type: cell-based; conditions: 24 h; for inhibition of HPV16 PsV infection: 6 μM, 30 min pretreatment of HaCaT cells, 300 vge/cell
Protocol: HaCaT cells were cultured in complete growing medium (CM; Dulbecco's modified Eagle's medium nutrient mixture F-12 HAM (Sigma-Aldrich, St. Louis, Mo.)) supplemented with 10% fetal bovine serum (FBS), amino acids (Sigma-Aldrich, St. Louis, Mo.), 2 mM L-glutamine, 100 U/ml penicillin and 1 μg/ml streptomycin (Sigma-Aldrich, St. Louis, Mo.), as previously described (Patterson et al., 2005. J Virol 79:6838-6847). Semi-confluent cells were pretreated for 30 minutes with arginine-rich peptides dissolved in CM (6 μM gp91dstat, gp91dstat (scramble), R9, and TAT, or 3 polyR) before the exposure to HaCaT cells and 300 vge/cell HPV16 pseudovirions (PsVs) packaging a luciferase reporter plasmid. Infectivity was scored after 24 hours of incubation at 37° C. (i.e., post infection) by Lumat LB9501 (Berthold Technologies GmbH & Co KG, Bad Wildbad, Germany) equipment, using the luciferase assay kit (Promega, Madison, Wis.) according to manufacturer's specification. Raw data were normalized to total cellular protein concentration. Graph summarizes triplicate treatments; error bars represent SEM.
Fifty percent inhibitory concentration (IC50) of HPV16 PsV infection of HaCaT cells by the compounds. For generation of an inhibitory concentration 50 (IC50) curves, cells were pretreated with the indicated concentration of arginine-rich peptides prior to HPV16 PsV exposure. Infectivity was scored after 24 hours of incubation at 37° C. and the data from two independent duplicate experiments were pooled and analyzed using non-linear regression (curve fit) function of PRISM software (GraphPad Software, Inc., LaJolla, Calif.).
Semi-confluent HaCaT cells maintained in CM, were pretreated for one hour with PrS dissolved in CM at the 0-5.8 μM concentrations before exposure to HPV16 PsVs (350 vge/cell). Infectivity was scored after 24 hours of incubation at 37° C. using a luminometer (Lumat LB9501, Berthold GmbH & Co., Bad Wildbad, Germany) and luciferase assay (Promega, Madison, Wis.) according to manufacturer's specification. Raw data were normalized to total cellular protein concentration.
For generation of an inhibitory concentration 50 (IC50) curve for PrS inhibition, data from two independent duplicate experiments was pooled and analyzed using the non-linear regression (curve fit) function of PRISM (GraphPad Software, Inc., La Jolla, Calif.).
3 μM PrS incubated for one hour at room temperature with 2 mg/ml high or low molecular weight HA in CM, prior to the addition to HaCaT cells. 350 vge/cell HPV16 PsVs were used for infection of cells in the presence or absence of PrS or HA:PrS complex. Infection was scored after 24 hours as described in FIG. 12.
HaCaT cells were pretreated with 6 μM concentrations of gp91dstat, gp91dstat (scramble), R9, or TAT, or 3 μM polyR. After 30 minutes of incubation at 37° C., cells were infected with HPV16 pseudovirions (PsVs) at a dose of 300 viral genome equivalents (vge)/cell, and the relative infectivity was quantified after 24 hours compared to infection in untreated cells (FIG. 1). Each treatment was performed in triplicate.
To evaluate the anti-HPV activity of PrS, HaCaT cells, a keratinocyte-derived cell line, was used as a model for analysis of HPV infection. […]
Infections were initiated using Luciferase-expressing HPV16 PsVs that were produced, isolated, and quantified as described previously (Surviladze et al., 2012. PLoS Pathogens 8: e1002519; Campos S K and Ozbun M A, 2009. PloS One 4:e4463). […]

HPV16 PsVs [2] = assay: Direct pre-incubation of HPV16 PsVs with peptide, dilution below IC50, then infection of HaCaT cells; assay type: cell-based; conditions: 1 μM, 1 h 37° C., diluted below IC50, HaCaT cells 24 h
Protocol: FIG. 3. […] HPV16 PsVs were incubated with 0.3 μM polyR for one hour at 37° C. The virus-polyR mixture was diluted with CM to reduce the polyR concentration below the IC50 value prior to incubation with HaCaT cells for 24 hours (HPV16-polyR). The control included untreated HPV16 PsVs (HPV16) added to HaCaT cells. Infection was measured after 24-hour incubation.
FIG. 15. Direct interaction of PrS to HPV16 PsVs. HPV16 PsVs were incubated with 1 μM PrS or HA:PrS complex for one hour at 37° C. Virus-PrS/or HA:PrS mixture was diluted with CM in order to reduce the PrS concentration below the IC50 value, and incubated with HaCaT cells for 24 hours. The control included untreated HPV16 PsVs. Infection was measured after 24 hours incubation as described in FIG. 12.
Typically, direct interaction of cationic inhibitors with the viral capsids of non-enveloped viruses (including HPV) is sufficient for antiviral activity. To determine whether polyR inhibited HPV16 infectivity by direct interaction with viral capsids, HPV16 PsVs were incubated with […] for one hour at 37° C. The virus-polyR mixture was diluted 1500-fold to reduce the polyR concentration below the IC50 value, then incubated with HaCaT cells. The control included cells exposed to HPV PsVs that were not treated with polyR. […]

HPV16 PsVs [3] = assay: HPV16 PsV binding to HaCaT cells at 4° C. (L1 immunoblot / immunofluorescence); assay type: cell-based; conditions: 4° C. 1 h
Protocol: FIG. 4. PolyR treatment of host cells inhibits HPV16 binding to cells. (A) Confluent HaCaT cell monolayers were treated with 1 μM polyR (in CM) for 30 minutes, before adding 100 vge/cell HPV16 PsVs, and incubated at 4° C. for one hour (to promote binding but prevent virus internalization). After washing out of unbound virus, cells were lysed (25 mM Tris pH7.5, 150 mM NaCl, 1% Triton-X100 supplemented with protease inhibitors) and centrifuged at 16,000×g for 10 minutes. Protein concentrations in supernatant were measured using the Bradford method (Bio-Rad Laboratories, Inc., Hercules, Calif.). Samples were boiled in SDS-containing sample buffer, and aliquots containing equal amount of protein ([…] to 200 μg) separated by SDS-polyacrylamide gel electrophoresis (SDS-PAGE), using 10% gel. Proteins were transferred onto polyvinylidene difluoride (PVDF) membranes and subjected to analysis using anti-HPV16 L1 primary antibody (Camvir-1, sc-47699, Santa Cruz Biotechnology, Inc., Dallas, Tex.;1:5000 dilution) for detection of HPV16 major capsid protein, L1. Proteins were visualized by enhanced chemiluminescence (SUPERSIGNAL West Pico Chemiluminescent Substrate, Thermo Fisher Scientific, Inc., Waltham, Mass.) and exposed to film (Phenix Research Products, Candler, N.C.). (B) Immunofluorescence assays were performed essentially as described previously (Surviladze et al., 2012. PLoS Pathogens 8:e1002519). HaCaT cells were grown on coverslips at approximately 50% confluence and treated with 3 μM polyR for 30 minutes at 37° C. before the addition of 1000 vge of HPV16 PsVs per coverslip. Cells were incubated for one hour at 4° C. and washed several times with PBS, before the fixation with 4% paraformaldehyde (PFA). BSA-blocked cells were incubated with rabbit polyclonal HPV16 antibody (antibody was affinity-purified from rabbit anti-HPV VLP antisera). PBS-washed slides were incubated with donkey AF488-conjugated anti-rabbit IgG secondary antibody; phalloidin-rhodamine (Cytoskeleton, Inc., Denver, Colo.) was used for actin staining. After extensive washing with PBS, cells were mounted in Gold Antifade and immunofluorescent (IF) images were captured by confocal photo-microscopy.
(§1) (A) HPV16 PsVs were bound to HaCaT cells (one hour at 4° C.), before the addition of […]. After a one-hour incubation at 4° C., unbound virus was washed out, cells were lysed and analyzed for the content of HPV L1 protein. (B) HaCaT cells were exposed to HPV 16 PsV at 4° C. in the absence of polyR, simultaneously with polyR (0 h), or one hour after polyR treatment (+1 h). After extensive washing with PBS, cells were lysed and analyzed for the content of HPV16 L1 protein.
FIG. 16. PrS pretreated cells binding of HPV16. Confluent HaCaT cell monolayers were treated with 1 μM PrS (in CM) before the addition of 200 vge/cell HPV16 PsVs and incubated at 4° C. for one hour (conditions to prevent virus internalization). After washing out of unbound virus, cells were lysed (25 mM Tris pH7.5, 150 mM NaCl, 1% Triton-X100 supplemented with protease inhibitors) and centrifuged at 16,000×g for 10 minutes. Protein concentrations in supernatant were measured using the Bradford method (Bio-Rad Laboratories, Inc., Hercules, Calif.). Samples were boiled in SDS-containing sample buffer, and aliquots containing equal amount of protein (˜50 μg to 200 μg) separated by SDS-polyacrylamide gel electrophoresis (SDS-PAGE) using 10% gel. […]

HPV16 PsVs [4] = assay: Dissociation of cell-bound HPV16 PsVs from HaCaT cells (L1 immunoblot); assay type: cell-based; conditions: 5 μM added to HPV-bound HaCaT cells, 1 h 4° C.
Protocol: as §1
FIG. 19. […] HPV16 PsVs were bound to HaCaT cells (one hour in cold), before the addition of 5 μM PrS. After a one-hour incubation at 4° C., unbound virus was washed out, cells were lysed, and HPV L1 protein content was measured as described in FIG. 16.
To determine whether polyR could cause HPV16 dissociation from cells, HPV16 PsVs were bound to HaCaT cells for one hour at 4° C. After washing away unbound virus, HPV-bound cells were incubated with 3 μM polyR for one hour at 4° C.; control cells were untreated. Cells were lysed and analyzed for HPV L1 protein content. […]
The post-attachment inhibitory effects of PrS could be due the displacement of capsids from the cell surface. […] After a one-hour incubation at 4° C., unbound virus was washed out, cells were lysed, and the HPV L1 protein content was analyzed.

T1 sequence (P09958 108-794): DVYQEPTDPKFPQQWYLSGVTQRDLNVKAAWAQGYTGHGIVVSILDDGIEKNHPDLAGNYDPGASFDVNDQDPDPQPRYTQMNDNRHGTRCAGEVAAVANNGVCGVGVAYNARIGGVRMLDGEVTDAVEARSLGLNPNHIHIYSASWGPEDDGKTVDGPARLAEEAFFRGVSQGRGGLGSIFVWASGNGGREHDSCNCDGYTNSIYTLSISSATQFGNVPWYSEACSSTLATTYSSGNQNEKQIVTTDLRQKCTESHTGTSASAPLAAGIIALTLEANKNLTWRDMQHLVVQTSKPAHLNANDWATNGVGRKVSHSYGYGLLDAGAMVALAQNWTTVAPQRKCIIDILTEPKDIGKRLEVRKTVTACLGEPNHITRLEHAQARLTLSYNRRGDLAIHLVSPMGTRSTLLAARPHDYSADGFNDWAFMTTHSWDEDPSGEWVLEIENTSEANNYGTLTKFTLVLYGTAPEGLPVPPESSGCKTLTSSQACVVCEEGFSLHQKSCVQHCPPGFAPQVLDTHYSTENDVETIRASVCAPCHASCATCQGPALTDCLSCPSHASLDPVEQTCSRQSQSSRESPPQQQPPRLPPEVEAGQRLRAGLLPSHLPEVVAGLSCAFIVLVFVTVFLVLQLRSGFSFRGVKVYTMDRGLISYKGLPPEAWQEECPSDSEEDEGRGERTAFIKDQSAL

## CCCCCCCCCC(=O)N[C@@H](CCCN=C(N)N)C(=O)N[C@H](C(=O)N[C@@H](CCCCN)C(=O)N[C@@H](CCCN=C(N)N)C(=O)CCl)C(C)C [FI, reference compound] (Decanoyl-RVKR-CH2Cl)
Recombinant His-furin
  furin cleavage of L2 capsid protein: inhibited cleavage of the L2 capsid protein

## N=C(N)NCCC[C@H](NC(=O)[C@H](CCCNC(=N)N)NC(=O)[C@H](CCCNC(=N)N)NC(=O)[C@H](CCCNC(=N)N)NC(=O)[C@H](CCCNC(=N)N)NC(=O)[C@H](CCCNC(=N)N)NC(=O)[C@H](CCCNC(=N)N)NC(=O)[C@H](CCCNC(=N)N)NC(=O)[C@@H](N)CCCNC(=N)N)C(=O)O [R9, arginine nonapeptide]
[1]
  inhibition of HPV16 PsV infection: 66%

## TAT: YGRKKRRQRRR; arginine-rich fragment of the HIV transactivator protein
[1]
  inhibition of HPV16 PsV infection: 44%

## protamine sulfate (MPRRRRSSSRPVRRRRRPRVSRRRRRRGGRRRR; also: sulfate salt; listed as Oncorhynchus keta) [PrS, sulfate form of salmon protamine, FDA approved arginine-rich polypeptide, reference compound]
[1]; 1 h pretreatment, 350 vge/cell, read-out: IC50 of HPV16 infection in HaCaT cells
  IC50: ~100 nM
HPV16 PsVs [2]
  effect of pre-incubation of HPV16 PsVs on infection: does not inhibit infection
HPV16 PsVs [3]; 1 μM in CM, 200 vge/cell
  HPV16 binding to pretreated cells (L1 Western blot): almost completely blocked HPV16 binding
HPV16 PsVs [3]; pH 4.5, 2 μM PrS (complex: 0.1% HMW HA:2 μM PrS)
  inhibition of HPV16 binding at acidic conditions: 60%
HPV16 PsVs [4]
  release of HPV16 from membrane: did not induce HPV16 release from membrane
